Experimental findings from BindingDB's records for doi:10.1021/co200147y (Bristol-Myers Squibb Research and Development, 2012) are described below.

Each structure is given as a SMILES string. Where “and” joins values, the source holds several entries; their conditions need not be identical. Equal values may be shown once.

Usually IC50 stands for the concentration that inhibits the measured activity by half. A low value points to higher potency.

Chain of Cannabinoid receptor 1 (P21554 whole entry): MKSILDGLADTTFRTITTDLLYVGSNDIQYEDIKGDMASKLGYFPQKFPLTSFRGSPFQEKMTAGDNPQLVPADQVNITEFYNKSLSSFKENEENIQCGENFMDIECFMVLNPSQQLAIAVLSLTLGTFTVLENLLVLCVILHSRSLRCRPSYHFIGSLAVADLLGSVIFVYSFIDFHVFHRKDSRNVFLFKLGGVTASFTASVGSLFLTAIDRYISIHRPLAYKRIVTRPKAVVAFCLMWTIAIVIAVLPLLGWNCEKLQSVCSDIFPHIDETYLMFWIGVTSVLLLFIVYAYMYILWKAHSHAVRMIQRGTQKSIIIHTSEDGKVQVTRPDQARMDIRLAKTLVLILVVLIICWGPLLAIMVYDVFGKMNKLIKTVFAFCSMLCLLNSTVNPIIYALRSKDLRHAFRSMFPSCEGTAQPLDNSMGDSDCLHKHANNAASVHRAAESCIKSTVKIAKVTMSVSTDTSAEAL

For this assay, the target named is Cannabinoid receptor 1 (Homo sapiens, UniProt P21554). The experiment in a line: Inhibition Assay. From the text:
Inhibition assay using hCB1.
Turning to `Cc1ccccc1-n1ncc(C(=O)NCCCc2ccccc2)c1-c1ccc(-c2ccccc2)cc1` [hCB1 Inhibitor, 2{1,1,6}], half-maximal inhibition (IC50) required 200 nM.

`O=C(NCCCc1ccccc1)c1cnn(-c2cccc3ccccc23)c1-c1ccc(-c2ccccc2)cc1` [hCB1 Inhibitor, 2{1,1,3}]: half-maximal inhibition (IC50) was put at 90 nM. Compound `CCCCNC(=O)c1cnn(-c2ccccc2C)c1-c1ccc(-c2ccccc2)cc1` [hCB1 Inhibitor, 2{6,1,6}] showed an IC50 of 2800 nM. Regarding `O=C(NCC1CC1)c1cnn(-c2cccc(Cl)c2)c1-c1ccc(-c2ccccc2)cc1` [hCB1 Inhibitor, 2{5,1,1}], the IC50 is 270 nM and 190 nM. The figure for `CCCCNC(=O)c1cnn(-c2cccc(Cl)c2)c1-c1ccc(-c2ccccc2)cc1` [hCB1 Inhibitor, 2{6,1,1}] is 500 nM and 350 nM; for `CCCCNC(=O)c1cnn(-c2cccc(C)c2)c1-c1ccc(-c2ccccc2)cc1` [hCB1 Inhibitor, 2{6,1,7}] it is 2700 nM.

Take `O=C(NCCCc1ccccc1)c1cnn(-c2cccc(Cl)c2)c1-c1ccc(-c2ccccc2)cc1` [hCB1 Inhibitor, 2{1,1,1}]: the IC50 is 410 nM and 200 nM. `Cc1cccc(-n2ncc(C(=O)NCC3CC3)c2-c2ccc(-c3ccccc3)cc2)c1` [hCB1 Inhibitor, 2{5,1,7}] returned an IC50 of 620 nM. The figure for `Cc1cccc(-n2ncc(C(=O)NCCCc3ccccc3)c2-c2ccc(-c3ccccc3)cc2)c1` [hCB1 Inhibitor, 2{1,1,7}] is 200 nM; for `Cc1ccccc1-n1ncc(C(=O)NCC2CC2)c1-c1ccc(-c2ccccc2)cc1` [hCB1 Inhibitor, 2{5,1,6}] it is 390 nM. As for `Cc1cccc(-n2ncc(C(=O)NCCCc3ccccc3)c2-c2ccc(-c3ccccc3)cc2)c1C` [hCB1 Inhibitor, 2{1,1,8}], the figure is 200 nM and 40 nM.
